# Publication PMC4987127 (Leukemia, 2015)
# Experiments:
# BTK kinase = BTK kinase (Homo sapiens, UniProt Q06187); assay: BTK signaling in AML cell lines: BTK phosphorylation; format: cell-based; conditions: FLT3 wt and FLT3-ITD cell lines
# AKT and ERK = assay: Phosphorylation of AKT and ERK in AML cell lines; format: cell-based
# PLCγ = assay: BTK signaling in AML cell lines: downstream mediators; format: cell-based; conditions: for effect on PLCγ phosphorylation: direct downstream target of BTK
# [1] = system: FLT3-mediated signaling pathways; assay: FLT3-mediated signaling pathways in FLT3-ITD positive cell lines; format: cell-based
# [2] = system: FLT3-ITD mutant AML cell lines (MOLM13, MOLM14 and MV4-11); assay: Proliferation screen of a panel of AML cell lines; format: cell-based; conditions: panel of AML cell lines spanning M0–M7; only FLT3-ITD mutant lines MOLM13, MOLM14, MV4-11
# THP-1 = THP-1 ref 11; cited from earlier work
# FLT3-ITD cell lines = assay: Apoptotic cell death; format: cell-based; conditions: concentration- and time-dependent
# ITD-F691L = assay: Isogenic BaF3 cell proliferation; format: cell-based
# [3] = system: OCI-AML3 and NOMO-1 cells; assay: FLT3-mediated signaling in FLT3 low expression cell lines; format: cell-based
# FLT3 kinase = FLT3 kinase (Homo sapiens, UniProt P36888); assay: Binding mode examination; conditions: molecular modeling, confirmed by washing-out experiment
# Chain of FLT3 kinase (P36888 27-993): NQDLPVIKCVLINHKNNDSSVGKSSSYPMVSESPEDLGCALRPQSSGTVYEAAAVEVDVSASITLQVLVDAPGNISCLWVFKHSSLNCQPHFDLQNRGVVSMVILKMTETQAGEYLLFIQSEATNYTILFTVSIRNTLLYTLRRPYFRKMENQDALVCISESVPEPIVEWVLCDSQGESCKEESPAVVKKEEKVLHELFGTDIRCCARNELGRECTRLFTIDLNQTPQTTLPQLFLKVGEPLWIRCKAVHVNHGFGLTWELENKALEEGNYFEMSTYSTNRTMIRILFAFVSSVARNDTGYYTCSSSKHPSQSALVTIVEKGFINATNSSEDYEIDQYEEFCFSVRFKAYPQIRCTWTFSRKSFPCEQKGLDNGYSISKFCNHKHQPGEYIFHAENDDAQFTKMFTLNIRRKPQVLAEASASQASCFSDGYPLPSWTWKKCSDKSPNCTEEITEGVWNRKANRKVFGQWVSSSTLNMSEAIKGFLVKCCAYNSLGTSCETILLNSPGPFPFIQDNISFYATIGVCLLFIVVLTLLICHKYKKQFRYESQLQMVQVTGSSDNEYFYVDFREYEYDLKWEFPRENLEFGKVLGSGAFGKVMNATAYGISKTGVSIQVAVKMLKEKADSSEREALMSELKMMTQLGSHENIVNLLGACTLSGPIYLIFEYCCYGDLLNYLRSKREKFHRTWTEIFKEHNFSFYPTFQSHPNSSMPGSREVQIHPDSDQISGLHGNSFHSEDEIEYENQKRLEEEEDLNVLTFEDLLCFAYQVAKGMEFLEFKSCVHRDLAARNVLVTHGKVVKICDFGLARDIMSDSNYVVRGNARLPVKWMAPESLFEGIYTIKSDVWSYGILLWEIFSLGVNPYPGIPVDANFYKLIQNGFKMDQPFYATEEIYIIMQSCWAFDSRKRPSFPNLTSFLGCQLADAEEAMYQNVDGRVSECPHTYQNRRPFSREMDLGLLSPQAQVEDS
# FLT3-K663Q = assay: Isogenic BaF3 cell proliferation; format: cell-based
# TF-1 = TF-1 ref 11; cited from earlier work
# [4] = system: BTK-KD MOLM14 and MOLM13 cells; conditions: BTK knockdown MOLM14 and MOLM13
# U937 cells = U937 cells ref 11; cited from earlier work
# HL60 = HL60 ref 11; cited from earlier work
# c-Kit Ba/F3 cells = assay: Oncogene-expressing Ba/F3 cell growth; format: cell-based
# ITD-D835Y = assay: Isogenic BaF3 cell proliferation; format: cell-based
# [5] = system: FLT3-ITD-dependent isogenic BaF3 cell line; assay: Isogenic BaF3 cell proliferation; format: cell-based
# FLT3-D835Y-BaF3 = assay: Isogenic BaF3 cell proliferation; format: cell-based; conditions: Mus musculus
# FLT3-D835H-BaF3 = assay: Isogenic BaF3 cell proliferation; format: cell-based; conditions: Mus musculus
# NRAS Ba/F3 cells = assay: Oncogene-expressing Ba/F3 cell growth; format: cell-based
# PDGFRα Ba/F3 cells = assay: Oncogene-expressing Ba/F3 cell growth; format: cell-based
# TEL-FLT3-wt-BaF3 = assay: Isogenic BaF3 cell proliferation; format: cell-based; conditions: Mus musculus
# BCR-ABL Ba/F3 cells = assay: Oncogene-expressing Ba/F3 cell growth; format: cell-based
# [6] = system: FLT3-ITD mutant-expressing primary patient cells; assay: Anti-proliferation on primary patient cells; format: cell-based
# Chain of BTK kinase (Q06187 whole entry): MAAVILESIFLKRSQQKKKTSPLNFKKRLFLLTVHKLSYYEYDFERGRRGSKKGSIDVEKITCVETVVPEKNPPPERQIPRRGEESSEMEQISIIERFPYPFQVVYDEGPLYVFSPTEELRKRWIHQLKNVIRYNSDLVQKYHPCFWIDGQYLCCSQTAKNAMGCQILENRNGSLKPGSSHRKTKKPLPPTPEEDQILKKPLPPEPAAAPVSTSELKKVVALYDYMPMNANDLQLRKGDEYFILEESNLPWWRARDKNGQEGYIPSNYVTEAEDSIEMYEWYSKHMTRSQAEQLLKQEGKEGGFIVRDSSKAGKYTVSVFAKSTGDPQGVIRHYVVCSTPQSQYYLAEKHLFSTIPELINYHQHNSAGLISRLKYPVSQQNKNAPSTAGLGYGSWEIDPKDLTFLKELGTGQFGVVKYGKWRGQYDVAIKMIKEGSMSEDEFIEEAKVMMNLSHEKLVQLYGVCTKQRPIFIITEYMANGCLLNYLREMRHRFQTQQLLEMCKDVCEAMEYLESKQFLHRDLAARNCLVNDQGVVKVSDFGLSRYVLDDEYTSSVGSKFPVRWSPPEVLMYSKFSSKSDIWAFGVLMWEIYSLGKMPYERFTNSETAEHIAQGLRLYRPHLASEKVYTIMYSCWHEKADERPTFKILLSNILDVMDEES
smiles,measurement,setting,value
CC(C)(C)c1cc(NC(=O)Nc2ccc(-c3cn4c(n3)sc3cc(OCCN5CCOCC5)ccc34)cc2)no1 [AC220],effect on BTK kinase phosphorylation/activity,BTK kinase,did not affect
same,effect on phosphorylation of AKT and ERK,AKT and ERK,inhibited
same,effect on PLCγ phosphorylation,PLCγ,did not affect
C=CC(=O)Nc1cccc(Nc2nc(Nc3ccc(OCCOC)cc3)ncc2F)c1 [AVL-292],effect on BTK kinase phosphorylation/activity,BTK kinase,effective
same,effect on FLT3-mediated signaling,[1],did not exhibit any effect
same,effect on phosphorylation of AKT and ERK,AKT and ERK,no effect
same,effect on PLCγ phosphorylation,PLCγ,effective
Cc1c(NC(=O)c2ccc(C(C)(C)C)cc2)cccc1-c1cn(C)c(=O)c(Nc2ccc(C(=O)N3CCOCC3)cc2)n1 [CGI-1746],effect on FLT3-mediated signaling,[1],did not exhibit any effect
same,effect on phosphorylation of AKT and ERK,AKT and ERK,no effect
same,effect on PLCγ phosphorylation,PLCγ,effective
"C=CC(=O)N1CCC[C@@H](n2nc(-c3ccc(Oc4ccccc4)cc3)c3c(N)ncnc32)C1 [ibrutinib, Ibrutinib]",sensitivity to ibrutinib (proliferation),[2],sensitive
same,activity against AML cell line,THP-1,no apparent activity
same,apoptotic cell death,FLT3-ITD cell lines,induced apoptotic cell death
same,activity against mutation,ITD-F691L,less active
same,effect on FLT3-related signaling,[3],not affected
same,mode of inhibition of FLT3 kinase,FLT3 kinase,reversible binding
same,activity against mutation,FLT3-K663Q,less active
same,activity against AML cell line,TF-1,no apparent activity
same,growth of BTK-KD cells,[4],significantly blocked the growth
same,inhibition of proliferation,U937 cells,moderate inhibition of proliferation
same,activity against AML cell line,HL60,no apparent activity
same,effect on growth,c-Kit Ba/F3 cells,did not affect the growth
same,activity against mutation,ITD-D835Y,less active
same,rescue of inhibitory effect by IL-3 treatment,[5]; FLT3-ITD BaF3 with IL-3,completely rescued
same,GI50,"[5]; Mus musculus, BaF3",120 nM
same,GI50,FLT3-D835Y-BaF3,500 nM
same,GI50,FLT3-D835H-BaF3,63 nM
same,effect on growth,NRAS Ba/F3 cells,did not affect the growth
same,effect on growth,PDGFRα Ba/F3 cells,did not affect the growth
same,GI50,TEL-FLT3-wt-BaF3,460 nM
same,effect on growth,BCR-ABL Ba/F3 cells,did not affect the growth
same,anti-proliferation activity,[6],dose-dependent anti-proliferation activity
same,effect on downstream mediators of BTK kinase,PLCγ; only in FLT3 wt-expressing cell lines (NOMO-1 and OCI-AML3),affected
